From patent US9572786B2, “Use of capsiate or dihydrocapsidate” (Catholic University Industry Academy Cooperation Foundation, priority 2007, dated 2017)

What was measured:
ICAM-1 (CD54) = assay: ICAM-1 expression in mouse skin, Western blotting; assay type: in vivo; details: mouse skin tissue; test group B
Description: (§1) In order to investigate the effect of capsiate on various intracellular angiogenesis-related expression factors, the inhibition effect of capsiate on angiogenesis factors induced by UV was evaluated using the mouse tissue of Example 5.
Western blotting was carried out in the same manner as Example 6 using the proteins isolated from the mouse skin tissue of each test group in Example 6, in order to investigate the level of expression of ICAM-1 (CD54), which is involved in cell infiltration, cell migration, angiogenesis, etc. in inflammatory response. In order to investigate the level of ICAM-1 expression, mouse anti-ICAM-1 antibody (Santa Cruz, USA) and HRP-conjugated secondary antibody (1:10,000, Zymed) were used.

TNF-α = assay: UV-induced TNF-α mRNA in hairless mouse skin, RT-PCR; assay type: in vivo; details: 200 μL of 1 mM topically 1 hour before UV 5 kJ/m^2 once, 6 hours later
Description: In order to investigate the effect of capsiate on the production of IL-6 and TNF-α induced in skin tissue during inflammatory response, the inhibition ability of capsiate against the expression of the pro-inflammatory cytokines was evaluated in animal model as follows. Test groups were as follows: non-treated group—treated with acetone only without UV irradiation; test group A—treated with 200 μL of 1 mM capsiate dissolved in acetone without UV irradiation; UV group—treated with acetone and UV; test group B—treated with 200 μL of 1 mM capsiate dissolved in acetone followed by UV irradiation 1 hour later.
To this end, acetone and capsiate were treated prior to UV irradiation. After treating with UV once at an intensity of 5 kJ/m^2, hairless mouse was euthanized 6 hours later. mRNA was extracted from the mouse tissue obtained by skin biopsy and RT-PCR was carried out as follows. For RNA extraction from the tissue, each mouse tissue obtained by skin biopsy was quickly frozen in liquid nitrogen and ground finely using a mortar. RNA was extracted from the mouse tissue using Trizol (Invitrogen, USA), and PCR (PTC-225 Peltier thermal cycler, MJ Research, USA) was carried out using it as template and using a commercial kit (reverse transcription system, Qiagen, USA). As a result, cDNA was prepared from each group. […]

Ki67 = Ki67 expression in mouse skin, immunohistochemical staining; assay type: in vivo; details: mouse skin tissue of Example 5
Description: as §1
Mouse skin tissue obtained by skin biopsy was immersed in OCT compound (Sakura Finetechnical Co. Ltd, Japan) and slowly frozen in liquid nitrogen. Thus prepared tissue was sliced with a thickness of 7 μm and fixed on a slide using acetone. The tissue was washed with distilled water and PBS and, after blocking for 1 hour using 10% normal goat serum, incubated at 4° C. for at least 16 hours using ki67 antibody (1:100, Neomarker, USA). After washing 3 times with PBS, the tissue was treated with Alexa 488-conjugated secondary antibody (Invitrogen, USA) for 30 minutes and then washed 3 times. The tissue was mounted and observed under a fluorescence microscope (Carl Zeiss, USA).

MMP-2 = assay: Zymography of secreted MMP-2 after UV; assay type: cell-based, human; details: HaCaT culture medium; 10, 25, 50 μM; UV 100 J/m^2; 36 hours
Description: Zymography was carried out in order to investigate the decrease of expression and activity of MMP-2 and MMP-9 in protein level.
5×10^5 HaCaT cells were placed on a 60 mm Petri dish and cultured for 24 hours in DMEM containing 10% FBS. Subsequently, the cells were cultured for 24 hours in DMEM containing 1% FBS until starvation. Then, after treating with capsiate at different concentrations (10 μM, 25 μM, 50 μM) for 30 minutes, followed by washing 3 times with PBS, UV was irradiated at an intensity of 100 J/m^2. Immediately after the UV irradiation, the cells were washed again with PBS and further cultured for 36 hours in DMEM containing 1% FBS, which was treated with capsiate at the same concentration as in the pre-treatment. After collecting the culture medium, the activity of MMP-2 and MMP-9 proteins secreted from the cells into the medium was measured. To this end, the mediums obtained from the same number of cells were concentrated to the same volume, and the temperature was maintained at 4° C. in order to avoid the effect on the protein activity.
Thus prepared sample was subjected to electrophoresis at 4° C. using 7.5% acrylamide gel containing gelatin but without sodium dodecyl sulfate (SDS). […]

ERK = assay: MAPK signaling in mouse skin tissue, Western blotting: ERK; assay type: in vivo; details: hairless mouse; UV+CPT vs UV with acetone only
Description: In order to investigate the intracellular mechanism (signaling) related with the inhibition of COX-2 expression by capsiate, Western blotting was carried out for MAPK signaling-related proteins (ERK, p-ERK, p38, p-p38 and JNK, p-JNK) as in Example 2-2, using proteins isolated from the mouse skin tissue.

IL-6 = assay: UV-induced pro-inflammatory cytokine mRNA, RT-PCR: IL-6; assay type: cell-based, human; details: HaCaT cells; 10, 25, 50 μM; UV 100 J/m^2; 4 hours
Description: 1×10^6 HaCaT cells were placed on a 100 mm Petri dish and cultured for 24 hours in DMEM containing 10% FBS. Subsequently, the cells were cultured for 24 hours in DMEM containing 1% FBS until starvation. Then, after treating with capsiate at different concentrations (10 μM, 25 μM, 50 μM) for 30 minutes, followed by washing 3 times with PBS, UV was irradiated at an intensity of 100 J/m^2 to induce the production of cytokines. Immediately after the UV irradiation, the cells were washed again with PBS and further cultured for 4 hours in DMEM containing 1% FBS, which was treated with capsiate at the same concentration as in the pre-treatment.
Then, the degree of mRNA expression for IL-6, IL-8 and TNF-α induced mainly in the skin by the UV irradiation was evaluated by RT-PCR in order to measure the inhibition effect against the pro-inflammatory cytokines.
RNAs were extracted from the cells of each test group using Trizol (Invitrogen, USA) and used as template for PCR (PTC-225 Peltier thermal cycler, MJ Research, USA) to prepare cDNAs for each test group. Using the resultant cDNAs as template, the degree of mRNA expression for IL-6, IL-8 and TNF-α was measured by RT-PCR (Roter Gene 6000 series, Corbett Research, Australia) using commercial IL-6, IL-8 and TNF-α primers. […]

COc1cc(COC(=O)CCCC/C=C/C(C)C)ccc1O [capsiate]
level of ICAM-1 expression increased by UV irradiation (ICAM-1 (CD54)): decreased | UV-induced expression of TNF-α (mRNA) in skin tissue (TNF-α): decrease | expression of Ki67 increased by UV (Ki67): significantly inhibited | expression and activity of MMP-2 (zymography) (MMP-2): inhibited expression and activity | expression and activity of pro-MMP-2 (zymography) (MMP-2): inhibited expression and activity | ERK phosphorylation in mouse skin tissue (ERK): suppressed phosphorylation | expression of IL-6 (mRNA) increased by UV irradiation (IL-6): significantly decreases
